Our source for the melting point values is a melting point compilation (Tetko et al.; mined from patent text by program, amines drawn as free bases though some values may be those of a salt).

Molecules are shown by their SMILES.

`CC(C)CCOc1ccc(Cl)c2c(=O)c3ccccc3sc12` came in with a melting point of 96 to 97 °C. Molecule `COc1ccc(F)cc1NC(=O)Nc1ccc(N2CCN(C(=O)Nc3ccc(OCC(O)CO)cc3C(F)(F)F)CC2)nc1` (stereo not given) showed a melting point of 195 °C. In turn, `CN1C(=O)CCC(=O)N1c1cc(-c2ccnc(Nc3cccc(Cl)c3)n2)ccn1` registered a melting point of 201 to 204 °C. The molecule `CCCNC(=O)C1(CCCCC#N)c2ccccc2-c2ccccc21` came in with a melting point of 102 to 104 °C. On to `CCOC(=O)c1c(C)nn(-c2ccc(Br)cc2)c1C`, for which the melting point lay in the range of 71 to 73 °C. The molecule `O=C(O)CCCCCOc1ccc(OCc2ccccc2)cc1` yielded a melting point of 100 to 101 °C. In the case of `CC(=O)c1ncn2c1CN=C(c1ccccc1Cl)c1cc(Cl)ccc1-2`, the melting point is 214 to 216 °C. As for `O=c1[nH]c2ccccc2c2c(CCN3CCN(Cc4ccccc4)CC3)n(-c3ccccc3)nc12`, the melting point fell in the range of 211 to 212 °C. Molecule `Cc1nc2ccccc2n1-c1nc(Cl)nc(Cl)n1` displayed a melting point above 300 °C.

Turning to `CCCCCCCCCCOc1ccc(C(=O)c2ccc(OC(=O)[C@H]3CCCO3)cc2)cc1`, the melting point came out at 80 °C. As to `CCOc1ccc(C(=O)NCc2ccc3c(c2)C(=O)N(C2(C)CCC(=O)NC2=O)C3=O)cn1` (stereo not given), the melting point lay in the range of 174 to 176 °C.

With `O=c1[nH]nc(-c2ccccc2Nc2cccc(C(F)(F)F)c2)s1`, the melting point is 157 to 160 °C. `Cc1nc2cc(-c3ccco3)ccc2o1` gave a melting point of 60 °C.

Molecule `O=C(OCC(=O)N1CCCC1=O)c1ccccc1` displayed a melting point of 83 to 84 °C. In the case of `O=C(CCCCCBr)N1Cc2ccccc2C1`, the melting point is 88 °C. The result for `CC(C)(C)c1ncc(Br)cn1` reads 50 to 51 °C; that for `CC(C)c1cc(-c2cc(C(=O)Cl)ccc2S(C)(=O)=O)on1`, 102 to 105 °C; that for `CC12CCCC=C1CCC1C2CCC2(C)C(OC3CCCCO3)CCC12` (stereo not given), 92 to 96 °C. On to `Cc1ccc(S(=O)(=O)Oc2cc(C=O)cc(OS(=O)(=O)c3ccc(C)cc3)c2OS(=O)(=O)c2ccc(C)cc2)cc1`, for which the melting point was found to be 159 °C. Take `CS(=O)(=O)OC1CN(c2c(F)cc3c(=O)c(C(=O)O)cn(C4CC4)c3c2F)C1`: the melting point fell in the range of 240 to 244 °C. Regarding `Cc1ccc2c(Sc3cc(Cl)cc(Cl)c3)c(CCCC(N)=O)[nH]c2c1`, the melting point lay in the range of 163 to 164 °C. The molecule `CCOC(=O)C1=C(N)C(OCC)=NS1(=O)=O` registered a melting point of 163 to 165 °C.

In turn, `CC(C)C[C@H](NC(=O)OCc1ccccn1)C(=O)N[C@@H](Cc1ccccc1)C(=O)CSCc1ccco1` had a melting point of 93 to 94 °C. As for `Nc1ccc(Oc2ncc(-c3ccccc3)c(C(F)(F)F)n2)cc1`, the melting point lay in the range of 123 to 126 °C. Next, `COC(=O)c1cccc2[nH]c3cc4c(c(OC)c3c12)CCCC4`: 194 to 196 °C. Turning to `CC1SC(c2cccnc2)NC1=O` (stereo not given), the melting point worked out at 110 °C. Take `O=C(Nc1ccc2cc(CN3CCCC3)cnc2c1)N1CCC(c2ccccc2)CC1`: the melting point fell in the range of 222 to 224 °C.

As for `Cc1ccc(N(c2ccc(C)cc2)c2ccc(-c3ccc(-c4ccc(N(c5ccc(C)cc5)c5ccc(C)cc5)cc4)cc3)cc2)cc1`, the melting point was in the range of 232 to 234 °C. The result for `COc1cc(Nc2nc3cccc(-c4ccn[nH]4)c3o2)cc(OC)c1OC` reads 185 to 189 °C; that for `CC(CCCc1ccccc1)c1cc2oc(=O)c3c(c2cc1O)C(=O)CCC3` (stereo not given), 200 to 202 °C. `Cc1[nH]c(=O)c(C#N)c2c1CC(c1ccccc1)CC2` (stereo not given) had a melting point above 290 °C. Regarding `CS(=O)(=O)c1ccc(-c2coc3ccc(-c4nnc(N)o4)cc23)cc1`, the melting point is 274 to 275 °C. Consider `CON1C=C2C=C(SC)N=C(Cl)N2N1`, for which the melting point is 243 to 244 °C. In turn, `CC(=O)Oc1ccc2c(c1)C(C)c1cc(OC(C)=O)ccc1-2` displayed a melting point of 139 to 140 °C. The result for `CCOC(=O)Cc1ccc(C(=O)c2ccc(C#N)cc2)n1C` reads 117 to 120 °C; that for `O=C1NCC=NN1c1cc(Cl)c(Cc2ccc(Cl)cc2)c(Cl)c1`, 199 to 200 °C; that for `O=C(O)CCCCCCc1ccc(CCNC(=O)c2ccc(Cl)cc2)cc1`, 140 to 143 °C.

Take `Cn1cnnc1C(N)(c1ccc(Cl)cc1)c1ccc2c(c1)c(-c1cccc(Cl)c1)nc1nnnn12` (stereo not given): the melting point is 220 °C. Molecule `C[C@H](CC#CC(C)(C)O)[C@H]1CCC[C@H]2[C@@H](O)CCC[C@]12C` gave a melting point of 134 to 135 °C. `COc1ccc(S(=O)(=O)N2Cc3ccccc3N(C(=O)c3cccc(C(F)(F)F)c3)CC2C(=O)O)cc1` (stereo not given) showed a melting point of 105 to 110 °C. As to `CCN(CC)CCOc1ccc2cc3ccc(OCCN(CC)CC)c([N+](=O)[O-])c3nc2c1[N+](=O)[O-]`, the melting point lay in the range of 138 to 140 °C. Take `CS(=O)(=O)c1ccc(C2=C(c3ccccc3)C(=O)N(c3ccc(F)cc3)C2=O)c(F)c1`: the melting point lay in the range of 198 to 200 °C.

Turning to `c1nnnn1C1CN2CCC1CC2` (stereo not given), the melting point lay within 83 to 84 °C. With `CCCCOc1c(N(C)C(=O)OC(C)(C)C)n(CC(C)C)c(=O)c2ccc(-n3cnnn3)cc12`, the melting point fell in the range of 199 to 200 °C. `COC(=O)COc1ccc(CC(C)NCC(O)c2cc3ccccc3o2)cc1C` (stereo not given): the melting point was 115 to 130 °C. On to `NC(=O)c1ccnc(Cl)n1`, for which the melting point was 152 to 154 °C. Molecule `CCCCCNC(=O)N(C)c1cccc(-c2ccc(C=C(OC)C(=O)O)cc2)c1` returned a melting point of 144 °C. Next, `CN(C)c1cnc(N)cn1`: 71.5 to 74.2 °C; `Cc1onc(-c2ccc(Cl)o2)c1-c1ccccc1`: 71 to 73 °C. `NS(=O)(=O)NCC1COc2ccccc2O1` (stereo not given): the melting point fell in the range of 97.5 to 98.5 °C. The result for `N#Cc1ccccc1OCCCN1CCC(C(c2ccc(F)cc2)c2ccc(F)cc2)CC1` reads 88.5 to 90 °C; that for `CCCCCC(Sc1ccc(OC)cc1)C(=O)O` (stereo not given), 90 to 95 °C; that for `CCc1nccc2c(CC(=O)O)cccc12`, 166 to 181 °C. `CC1(C)[C@@H](NCC(=O)N2C[C@@H](F)C[C@H]2C#N)CC[C@@]1(C)c1nc(-c2ccc(F)cc2)no1` displayed a melting point of 127 to 131 °C. In turn, `CC12C=CCC1C1CC(O)c3cc(O)ccc3C1CC2` (stereo not given) registered a melting point of 150 to 157 °C. `FC(F)Oc1n[nH]cc1-c1ccccc1` yielded a melting point of 125 °C.

For `C=CCOCC(O)CN1CCN(c2nc(-c3ccccc3)nc3ccccc23)CC1` (stereo not given), the melting point is 85 to 87 °C. `COc1ccc(/C=C(\C#N)c2ccc(C(F)(F)F)cc2)cc1OC1CCCC1` registered a melting point of 96 to 99 °C. `COC(C)(C)C(C#N)=NOCc1coc(-c2ccc(F)cc2)n1` yielded a melting point of 75 to 77 °C.

In turn, `CC(=O)N(C)c1cccc(-c2nc(=O)c3ccccc3s2)n1` came in with a melting point of 218 to 220 °C.

Turning to `CCCCCCCCCC(=O)NCCCCCC(=O)OO`, the melting point was 63 to 67 °C. The result for `O=C(O)c1ccccc1N1CCN(CC(O)COc2ccccc2)CC1` (stereo not given) reads 235 to 237 °C; that for `Cc1ccc(S(=O)(=O)OCC2CCc3sc(C)nc3C2)cc1` (stereo not given), 105 to 106 °C; that for `O=C(O)CNC(=O)c1ncc2c(Cl)cccc2c1O`, 232 °C.

`NC(=O)c1ccc(N2CCN(CCCC3OCCc4ccccc43)CC2)cc1` (racemic): the melting point stood at 185 °C. On to `CC1Cc2cccc(S(N)(=O)=O)c2S1(=O)=O` (stereo not given), for which the melting point was in the range of 167 to 169 °C. Consider `CCCN(Cc1ccc(-c2ccccc2-c2nnnn2C(c2ccccc2)(c2ccccc2)c2ccccc2)cc1)c1nc(C)cnc1C(=O)OCC`, for which the melting point fell in the range of 110 to 112 °C.

Take `CCOC(=O)C1=C(C)NC(COC(C)=O)=C(C(=O)OCC)C1c1cccc([N+](=O)[O-])c1` (stereo not given): the melting point is 133 to 135 °C. Molecule `O=Cc1cc2c3ccccc3ccc2c2ccccc12` gave a melting point of 167 to 169 °C. Regarding `CCOCc1nc2c(N)nc3cc(-c4cccnc4)ccc3c2n1CCN1CCNCC1`, the melting point fell in the range of 208 to 211 °C. Next, `COCCOc1ccc(/C=C/C(=O)NS(=O)(=O)c2cccc(C#N)c2)c(Oc2ncc(C(F)(F)F)cc2Cl)c1`: 195 to 197 °C; `O=C(O)CCCCc1cc2nc(Cl)ccc2n1S(=O)(=O)c1ccc2ncsc2c1`: 169 °C. Next, `Cc1cccc(C(=O)NN=Cc2ccc3ccccc3n2)c1`: 188 °C; `CCc1noc(-c2cn(-c3ccc(OC)c(OC)c3)cn2)n1`: 143 °C.

With `O=C(CCl)Nc1ccc2[nH]c(=O)c3ccccc3c2c1`, the melting point is 300 to 303 °C. Next, `COC(=O)c1c[nH]c(C(=O)c2cc(OC)cc(OC)c2)c1`: 115 to 120 °C; `CCCn1ncc2c(=O)[nH]c(-c3cc(C(=O)O)ccc3OCC)nc21`: 277 to 279 °C; `N#Cc1c(N)[nH]c2ccc(Sc3ccc(O)cc3)cc12`: 241 to 242 °C. Consider `CSC(=C[N+](=O)[O-])NCCSCc1ccsn1`, for which the melting point lay in the range of 64.5 to 65.5 °C. `CN1C(=O)C(NC(=O)Nc2cccc(Br)c2)N(C)C1=O` (stereo not given) gave a melting point of 173 to 182 °C. Take `O=c1[nH]c2ccc(C(O)CCN3CCC(Cc4ccccc4)CC3)cc2[nH]1` (stereo not given): the melting point lay in the range of 240 to 244 °C.

Regarding `COC(=O)c1cccc(-c2nc(COc3ccc(CO)cc3OC)c(C)o2)c1`, the melting point is 141 to 142 °C. The molecule `CCN(CC)C(=S)n1cc(F)c(/N=C/N(C)C)nc1=O` came in with a melting point of 118 to 123 °C. `COc1ccc(S(=O)(=O)CNC=O)cc1` registered a melting point of 105 to 107 °C. Molecule `CCOC(=O)c1cc(=O)c2c(C(C)C)cccc2[nH]1` showed a melting point of 176 to 178 °C.

`Cc1nc(C(Br)Br)nc(C(Br)Br)n1` showed a melting point of 87 to 88.5 °C. In turn, `CC(C)c1ccc2c(c1)c(Sc1ccccc1)c(CC(=O)O)n2Cc1ccc(Cl)cc1` returned a melting point of 151 to 153 °C. Consider `CCOC(=O)Cn1c(-c2ccc(Br)cc2)nc2cccnc21`, for which the melting point lay in the range of 138 to 139 °C. `COc1cc(OC)c2c(=O)[nH]c(-c3ccc(O)cc3)nc2c1` gave a melting point of 303 to 305 °C. Next, `Cc1cc(=O)n(C)c(=O)n1C`: 113 to 114 °C.
